Test results: article PMC3093256, “Synthesis of 1-Substituted Carbazolyl-1,2,3,4-tetrahydro- and Carbazolyl-3,4-dihydro-β-carboline Analogs as Potential Antitumor Agents” (Marine Drugs, 2011)
Values after ≈ are worked out from the molar mass of the structure shown.

What was measured:
[1] = system: HepG2/A2 (human hepatoma); assay: Cytotoxicity assay, HepG2/A2 cells; format: cell-based; conditions: Homo sapiens, 72 h; HepG2/A2 cells, 3 days incubation, by interpolation
Experimental: (§1) The cytotoxic activities of compounds against KB (human mouth epidermoid carcinoma), DLD (human colon adenocarcinoma), NCI-H661 (human lung large cell carcinoma), Hepa (human hepatoma), and HepG2/A2 (human hepatoblastoma) cells were assayed by the […] assay as previously described. The cells for assay were cultured in RPMI-1640 medium supplemented with […] in an incubator at 37 °C. The cytotoxicity assay depends on the binding of methylene blue to fixed monolayers of cells at pH 8.5, washing the monolayer, and releasing the dye by lowering the pH value. Samples and control standard drugs were prepared at a concentration of 1, 10, 40, and 100 μg/mL. After seeding 2880 cells/well in a 96-well microplate for 3 h, 20 μL of sample or standard agent was placed in each well and incubated at 37 °C for 3 days. After removing the medium from the microplates, the cells were fixed with 10% formaldehyde in 0.9% saline for 30 min, then dyed with 1% (w/v) methylene blue in 0.01 M borate-buffer (100 μL/well) for 30 min. The 96-well plate was dipped into a 0.01 M borate-buffer solution four times in order to remove the dye. Then, 100 μL/well of EtOH-0.1 M HCl (1:1) was added as a dye eluting solvent, and the absorbance was measured on a microtiter plate reader (Dynatech, MR 7000) at a wavelength of 650 nm. […] Doxorubicin was used as a standard compound.

[2] = system: KB (human mouth epidermoid carcinoma); assay: Cytotoxicity assay, KB cells; format: cell-based; conditions: 72 h, 3 days incubation, by interpolation
Experimental: as §1

[3] = system: NCI-H661 (human lung large cell carcinoma); assay: Cytotoxicity assay, NCI-H661 cells; format: cell-based; conditions: 72 h, 3 days incubation, by interpolation
Experimental: as §1

[4] = biological target: T1, human DNA topoisomerase II (Homo sapiens, UniProt P11388); assay: Relaxation assay of topoisomerase II (supercoiled pBR322); format: biochemical; conditions: for IC50: five concentrations 5, 10, 25, 50 and 100 μg/mL, read-out: Inhibition of DNA topoisomerase II IC50 (converted); for inhibition of DNA topoisomerase II (in words): compared with etoposide; for fold more potent against topoisomerase II compared to etoposide: relative to etoposide
T1 construct: purchased TopoGen
Experimental: (§2) Topoisomerases I and II (topo I and II) assays were measured by assessing relaxation of supercoiled pBR322 plasmid DNA according to [24]. […] In summary, topo I (TopoGen) was mixed with the test sample and 10° volume of assay buffer (100 mM Tris-HCl, 10 mM EDTA, 1.5 M NACl, 1.0% BSA, […], and 50% glycerol), and then supercoiled DNA (pBR322) was added. In topo II assay, the mixture contained test sample and buffer including 50 mM Tris-HCl, 120 mM KCl, 10 mM MgCl2, 0.5 mM ATP, 0.5 mM dithiothreitol, 2 μg BSA, pBR322 plasmid DNA (0.25 μg), and 3U of topo II (TopoGen) in final volume of 20 μL. After incubation of topo I or topo II mixture for 30 min at 37 °C, 2 λ 10% SDS and 2.5 λ proteinase K were added for 1 h. The reaction mixtures were electrophoresed on a 2% agarose gel (50 V, 20 min; 100 V, 30 min; 110 V, 30 min) and stained with ethidium bromide. Finally, by a densitometer of ImageMaster® (Fujifilm thermal imaging system, FTI-500), the gels were directly scanned and the area representing supercoiled DNA was calculated.

Hepa (human hepatoma) = assay: Cytotoxicity assay, Hepa cells; format: cell-based; conditions: 72 h, 3 days incubation, by interpolation
Experimental: as §1

[5] = biological target: T2, human DNA topoisomerase I (Homo sapiens, UniProt P11387); assay: Relaxation assay of topoisomerase I (supercoiled pBR322); format: biochemical; conditions: five concentrations 5, 10, 25, 50 and 100 μg/mL; read-out: Inhibition of DNA topoisomerase I IC50 (converted)
T2 construct: purchased TopoGen
T2 sequence (P11387 1-765): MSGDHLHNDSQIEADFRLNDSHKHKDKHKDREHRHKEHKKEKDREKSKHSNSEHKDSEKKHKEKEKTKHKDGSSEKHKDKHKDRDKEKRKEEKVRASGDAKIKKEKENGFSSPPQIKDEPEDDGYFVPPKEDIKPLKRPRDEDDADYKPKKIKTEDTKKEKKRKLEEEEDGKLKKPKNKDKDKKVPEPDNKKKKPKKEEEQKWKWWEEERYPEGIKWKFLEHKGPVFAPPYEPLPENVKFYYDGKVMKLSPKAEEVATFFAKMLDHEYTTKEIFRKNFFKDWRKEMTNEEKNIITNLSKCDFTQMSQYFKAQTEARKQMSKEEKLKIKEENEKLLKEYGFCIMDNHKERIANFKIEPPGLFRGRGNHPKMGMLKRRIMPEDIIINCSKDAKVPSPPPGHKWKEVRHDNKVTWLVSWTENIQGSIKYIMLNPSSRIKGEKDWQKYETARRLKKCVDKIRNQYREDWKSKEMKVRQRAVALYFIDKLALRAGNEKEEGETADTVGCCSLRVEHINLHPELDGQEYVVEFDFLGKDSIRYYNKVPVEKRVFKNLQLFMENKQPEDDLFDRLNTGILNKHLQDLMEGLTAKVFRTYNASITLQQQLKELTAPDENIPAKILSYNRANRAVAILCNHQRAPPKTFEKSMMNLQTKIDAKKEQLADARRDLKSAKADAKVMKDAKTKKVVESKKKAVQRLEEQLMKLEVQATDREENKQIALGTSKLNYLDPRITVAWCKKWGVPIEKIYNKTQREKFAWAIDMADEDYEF
Experimental: as §2

[6] = system: DLD (human colon adenocarcinoma); assay: Cytotoxicity assay, DLD cells; format: cell-based; conditions: for IC50: Homo sapiens, 72 h, 3 days incubation, by interpolation
Experimental: as §1

T1 sequence (P11388 whole entry): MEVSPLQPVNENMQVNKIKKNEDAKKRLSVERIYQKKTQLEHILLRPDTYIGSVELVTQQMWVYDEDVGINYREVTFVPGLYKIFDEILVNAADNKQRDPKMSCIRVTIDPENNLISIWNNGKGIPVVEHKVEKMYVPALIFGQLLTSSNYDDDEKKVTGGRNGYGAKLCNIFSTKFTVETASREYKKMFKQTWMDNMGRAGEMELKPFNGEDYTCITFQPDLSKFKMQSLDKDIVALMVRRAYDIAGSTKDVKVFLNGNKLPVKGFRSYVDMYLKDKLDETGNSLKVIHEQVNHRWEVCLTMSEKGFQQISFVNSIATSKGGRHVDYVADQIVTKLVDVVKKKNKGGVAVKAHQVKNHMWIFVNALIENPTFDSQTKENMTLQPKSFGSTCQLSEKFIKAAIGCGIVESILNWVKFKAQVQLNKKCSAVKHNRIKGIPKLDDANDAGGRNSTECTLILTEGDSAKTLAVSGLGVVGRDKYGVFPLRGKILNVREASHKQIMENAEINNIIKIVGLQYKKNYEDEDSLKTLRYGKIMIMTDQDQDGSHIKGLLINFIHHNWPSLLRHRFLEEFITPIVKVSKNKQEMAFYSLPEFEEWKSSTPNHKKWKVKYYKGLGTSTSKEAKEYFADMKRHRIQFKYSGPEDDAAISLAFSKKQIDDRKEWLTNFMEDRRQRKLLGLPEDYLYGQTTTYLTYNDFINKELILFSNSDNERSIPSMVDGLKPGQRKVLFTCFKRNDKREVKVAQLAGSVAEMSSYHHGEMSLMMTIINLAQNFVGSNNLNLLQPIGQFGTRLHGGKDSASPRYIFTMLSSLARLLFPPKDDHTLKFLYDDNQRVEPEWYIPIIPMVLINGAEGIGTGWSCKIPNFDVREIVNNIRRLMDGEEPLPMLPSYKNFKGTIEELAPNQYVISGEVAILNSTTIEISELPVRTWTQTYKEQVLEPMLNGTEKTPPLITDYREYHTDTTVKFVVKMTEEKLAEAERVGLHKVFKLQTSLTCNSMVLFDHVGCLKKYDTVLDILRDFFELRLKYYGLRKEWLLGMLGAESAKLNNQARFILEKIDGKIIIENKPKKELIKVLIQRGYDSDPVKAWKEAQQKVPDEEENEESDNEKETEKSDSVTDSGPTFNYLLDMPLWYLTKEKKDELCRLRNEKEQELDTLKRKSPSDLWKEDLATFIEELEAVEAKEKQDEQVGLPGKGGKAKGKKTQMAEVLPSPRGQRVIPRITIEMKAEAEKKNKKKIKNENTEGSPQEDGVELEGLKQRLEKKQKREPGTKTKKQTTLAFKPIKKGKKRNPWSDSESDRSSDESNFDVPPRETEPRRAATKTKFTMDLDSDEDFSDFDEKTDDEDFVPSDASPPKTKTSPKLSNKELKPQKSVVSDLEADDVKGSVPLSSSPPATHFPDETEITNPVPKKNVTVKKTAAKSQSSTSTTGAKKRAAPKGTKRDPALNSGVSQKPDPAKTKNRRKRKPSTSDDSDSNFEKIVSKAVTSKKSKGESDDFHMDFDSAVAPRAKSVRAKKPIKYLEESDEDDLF

SMILES | IC50 [1] | IC50 [2] | melting point | IC50 [3] | IC50 [4] | IC50 (Hepa (human hepatoma)) | IC50 [5] | IC50 [6] | inhibition of DNA topoisomerase II (in words) [4] | fold more potent against topoisomerase II compared to etoposide [4] | activity in DLD assay (in words) [6]
CCCCCCCCCCCCCCCCn1c2ccccc2c2cc(C3=NCCc4c3[nH]c3ccccc43)ccc21 [Compound 16, 1-(9′-Hexadecyl-3′-carbazolyl)-3,4-dihydro-β-carboline] | > 60 µg/mL | > 20 µg/mL | 90 to 92 °C | > 20 µg/mL | > 179 µM | > 20 µg/mL | > 179 µM | > 20 µg/mL | – | – | –
CC(C)CCn1c2ccccc2c2cc(C3NCCc4c3[nH]c3ccccc43)ccc21 (stereo not drawn) [Compound 9, 1-(9′-[3″-Methylbutyl]-3′-carbazolyl)-1,2,3,4-tetrahydro-β-carboline] | – | 2.96 µg/mL (≈ 7.26 µM) | 99 to 101 °C | – | 6.87 µM | 1.12 µg/mL (≈ 2.75 µM) | 236 µM | – | most potent | 10- to 15 fold | –
CCn1c2ccccc2c2cc(C3=NCCc4c3[nH]c3ccccc43)ccc21 [Compound 2, 1-(9′-Ethyl-3′-carbazolyl)-3,4-dihydro-β-carboline] | 0.6 µg/mL (≈ 1.65 µM) | 0.71 µg/mL (≈ 1.95 µM) | 175 to 177 °C | 0.84 µg/mL (≈ 2.31 µM) | 23.4 µM | – | > 275 µM | 1.09 µg/mL (≈ 3 µM) | – | – | –
CCCCCCCCCCn1c2ccccc2c2cc(C3NCCc4c3[nH]c3ccccc43)ccc21 (stereo not drawn) [Compound 13, 1-(9′-Decyl-3′-carbazolyl)-1,2,3,4-tetrahydro-β-carboline] | > 60 µg/mL | 6.36 µg/mL (≈ 13.3 µM) | 102 to 104 °C | 13.9 µg/mL (≈ 29.1 µM) | 58.6 µM | – | > 209 µM | 10.4 µg/mL (≈ 21.8 µM) | – | – | –
CCCCCn1c2ccccc2c2cc(C3NCCc4c3[nH]c3ccccc43)ccc21 (stereo not drawn) [Compound 7, 1-(9′-Pentyl-3′-carbazolyl)-1,2,3,4-tetrahydro-β-carboline] | 20.5 µg/mL (≈ 50.3 µM) | 3.45 µg/mL (≈ 8.46 µM) | 129 to 130 °C | 0.22 µg/mL (≈ 0.54 µM) | 6.62 µM | – | 218 µM | 3.75 µg/mL (≈ 9.2 µM) | most potent | – | –
CC(C)CCn1c2ccccc2c2cc(C3=NCCc4c3[nH]c3ccccc43)ccc21 [Compound 10, 1-(9′-[3″-Methylbutyl]-3′-carbazolyl)-3,4-dihydro-β-carboline] | – | 3.13 µg/mL (≈ 7.72 µM) | 135 to 137 °C | – | 6.66 µM | 4.4 µg/mL (≈ 10.8 µM) | 165 µM | – | most potent | 10- to 15 fold | –
CCCCCCCCn1c2ccccc2c2cc(C3NCCc4c3[nH]c3ccccc43)ccc21 (stereo not drawn) [Compound 11, 1-(9′-Octyl-3′-carbazolyl)-1,2,3,4-tetrahydro-β-carboline] | 20.7 µg/mL (≈ 46 µM) | > 20 µg/mL | 87 to 89 °C | > 20 µg/mL | 66.7 µM | – | > 222 µM | 1.57 µg/mL (≈ 3.49 µM) | – | – | active
CCCCCCCCn1c2ccccc2c2cc(C3=NCCc4c3[nH]c3ccccc43)ccc21 [Compound 12, 1-(9′-Octyl-3′-carbazolyl)-3,4-dihydro-β-carboline] | 30.1 µg/mL (≈ 67.2 µM) | 9.13 µg/mL (≈ 20.4 µM) | 91 to 92 °C | 5.28 µg/mL (≈ 11.8 µM) | 64.8 µM | – | > 223 µM | 2.55 µg/mL (≈ 5.7 µM) | – | – | –
